The source of these data is paper PMC11945657, “Microwave-Assisted Synthesis of Morpholine-Based Chalcones as Reversible MAO-A Inhibitors in the Management of Mental Depression” (Pharmaceuticals, 2025).

SMILES strings stand for the structures. Several values for one entry are separate records, joined by “and”; a condition that tells them apart may be missing. Identical values can stand only once. Like-named read-outs stand apart in the source and are kept apart here.

Experiment [1] addresses MAO-A. To be noted: Figure 1, read-out: MAO-A inhibition, cited from earlier work.
The nature of experiment [2]: DPPH free radical scavenging antioxidant assay. To be noted: for antioxidant potential in the DPPH assay: concentration not given. The protocol:
H2O2 produced during metabolic events in the brain may be crucial for signaling and metabolic functions. The compounds were screened to check their potential to inhibit ROS through the DPPH assay. […] However, further studies are required to confirm this effect.
The DPPH approach, which gauges the free radical scavenging activity, was used to evaluate the antioxidant properties of the compounds. The test was performed according to the literature method. The stock solution of DPPH (0.5 mM) was prepared, and methanol was used to create each dilution. The different concentrations (10, 25, 50, 75, and 100 μM) of the test compounds (C1–C15) were prepared and compared with the standard ascorbic acid. The percentage antioxidant activity of the compounds was calculated using the following formula: % Antioxidant activity = [(Aabsorbance − Atest)/Aabsorbance] × 100.
(In general: Loss of DPPH colour is used to gauge radical scavenging.)

In experiment [3] the target is T1, hMAO-B (Homo sapiens, UniProt P27338).
T1 sequence (P27338 1-520): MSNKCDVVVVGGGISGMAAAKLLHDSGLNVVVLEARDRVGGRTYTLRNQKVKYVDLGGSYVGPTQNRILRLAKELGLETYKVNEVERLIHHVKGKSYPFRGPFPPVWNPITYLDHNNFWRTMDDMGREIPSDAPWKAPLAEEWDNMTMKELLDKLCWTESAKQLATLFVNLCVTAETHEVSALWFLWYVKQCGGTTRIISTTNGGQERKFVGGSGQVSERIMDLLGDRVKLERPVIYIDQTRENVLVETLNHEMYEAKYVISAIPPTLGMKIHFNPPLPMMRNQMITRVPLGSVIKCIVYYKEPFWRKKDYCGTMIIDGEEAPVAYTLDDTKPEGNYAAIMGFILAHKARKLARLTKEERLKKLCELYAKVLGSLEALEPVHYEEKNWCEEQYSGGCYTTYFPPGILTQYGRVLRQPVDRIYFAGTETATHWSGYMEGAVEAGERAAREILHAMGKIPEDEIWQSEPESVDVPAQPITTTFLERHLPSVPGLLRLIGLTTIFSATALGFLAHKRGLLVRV
The experiment in a line: MAO inhibition assay (Amplex Red, fluorimetric), MAO-B.

Experiment [4] concerns the target T2, hMAO-A (Homo sapiens, UniProt P21397).
T2 sequence (P21397 1-527): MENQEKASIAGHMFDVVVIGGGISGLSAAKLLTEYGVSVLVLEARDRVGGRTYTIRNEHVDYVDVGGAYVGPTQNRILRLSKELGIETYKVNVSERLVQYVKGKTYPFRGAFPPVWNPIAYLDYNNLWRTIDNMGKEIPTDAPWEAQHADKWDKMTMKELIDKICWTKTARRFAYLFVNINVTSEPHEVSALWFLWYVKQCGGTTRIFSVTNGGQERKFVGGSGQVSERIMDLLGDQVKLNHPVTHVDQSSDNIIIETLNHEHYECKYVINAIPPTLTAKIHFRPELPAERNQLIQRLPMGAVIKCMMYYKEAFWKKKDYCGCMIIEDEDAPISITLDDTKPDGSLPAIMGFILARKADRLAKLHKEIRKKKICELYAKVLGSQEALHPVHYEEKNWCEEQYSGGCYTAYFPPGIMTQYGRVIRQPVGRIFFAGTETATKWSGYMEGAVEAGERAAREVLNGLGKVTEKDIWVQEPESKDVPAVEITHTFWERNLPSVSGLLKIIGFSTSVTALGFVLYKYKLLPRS
Nature of the experiment: MAO inhibition assay (Amplex Red, fluorimetric), MAO-A.

The target in experiment [5] is T2, hMAO-A. The experiment in a line: Reversibility inhibition study (dilution method). The class given is biochemical. To be noted: for reversibility of hMAO-A inhibition: dilution method. Also noted: purchased Sigma-Aldrich. The protocol: Reversibility inhibition investigations were conducted using dilution methods as per the reported protocol, and all experiments were performed in triplicate. […] Substrate and buffer solutions were used for the dilution.

Experiment [6] deals with T2, hMAO-A. Also on record: purchased Sigma-Aldrich. To be noted: Figure 1, read-out: hMAO-A inhibition; cited from earlier work.
[7] abbreviates: read-out: Percentage Inhibition at 20 μM MAO-B.
[8] abbreviates: read-out: Percentage Inhibition at 20 μM MAO-A, 20 μM.
The mark [9] stands for this setting: 0.1 × IC50, after 100 times dilution with tyramine substrate.
The mark [10] stands for this setting: 1 × IC50, after 100 times dilution with tyramine substrate.

Turning to `COc1cc(C(=O)/C=C/c2ccc([N+](=O)[O-])cc2)cc(OC)c1OC` [Compound 5], the Ki in experiment [1] (Ki) is 3.47 ± 0.09 µM.

As to `O=C(/C=C/c1ccc(F)c(F)c1)c1ccc(N2CCOCC2)cc1` [Compound C6, (E)-3-(3,4-Difluorophenyl)-1-(4-morpholinophenyl)prop-2-en-1-one], the “% Antioxidant Activity” value in experiment [2] (10 µM) is 12.25%; in experiment [2] (25 µM), 24.46%; in experiment [2] (50 µM) it was 36.03%; in experiment [2] (75 µM), 50% and 53.39%; in experiment [2] (100 µM) it was 55.16%. Further, the “antioxidant potential in the DPPH assay” value in experiment [2] is listed as “more than 50%”. In addition, the inhibition at 20 µM is under 50% in experiment [3] (read-out: IC50 Values MAO-B), 31.9% in experiment [3] (setting [7]) and 71.6% in experiment [4] (setting [8]). Also, in experiment [4], the IC50 came out at 8.45 ± 0.19 µM. In addition, the “Percentage Inhibition at 20 μM MAO-A” value in experiment [4] is recorded as 71.67%. For the same compound, the “% MAO-A activity” value in experiment [5] (setting [9]) was determined as 68.83%; in experiment [5] (setting [10]), 38.95%; in experiment [5] (10 × IC50, before dilution), 8.32%; in experiment [5] (100 × IC50, before dilution), 3.41%. Moreover, the “reversibility of hMAO-A inhibition” value in experiment [5] is listed as “reversibly inhibit”.

For the compound `COc1cc(OC)c(/C=C/C(=O)c2ccc(F)cc2)c(OC)c1` [Compound 4], the IC50 in experiment [1] is 0.444 ± 0.039 µM.

For the compound `CCOc1ccc(C(=O)/C=C/c2ccc(F)cc2)cc1` [Compound 2], the IC50 in experiment [6] is 4.63 ± 0.15 µM.

As to `O=C(/C=C/c1ccc(F)cc1F)c1ccc(N2CCOCC2)cc1` [Compound C14, (E)-3-(2,4-Difluorophenyl)-1-(4-morpholinophenyl)prop-2-en-1-one], the “% Antioxidant Activity” value in experiment [2] (10 µM) was 10.51%; in experiment [2] (25 µM), 18.21%; in experiment [2] (50 µM), 41.12%; in experiment [2] (75 µM) it was 50% and 53.12%; in experiment [2] (100 µM), 59.51%. In experiment [2], the “antioxidant potential in the DPPH assay” value is reported as “more than 50%”. Further, the inhibition at 20 µM was under 50% in experiment [3] (read-out: IC50 Values MAO-B), 35.3% in experiment [3] (setting [7]) and 75.4% in experiment [4] (setting [8]). The IC50 in experiment [4] was determined as 7.91 ± 0.08 µM. Moreover, the “Percentage Inhibition at 20 μM MAO-A” value in experiment [4] turned out to be 75.45%. The “% MAO-A activity” value was found to be 65.33% in experiment [5] (setting [9]); 35.76% in experiment [5] (setting [10]); 6.67% in experiment [5] (10 × IC50, before dilution); 3.28% in experiment [5] (100 × IC50, before dilution). Moreover, in experiment [5], the “reversibility of hMAO-A inhibition” value is “reversibly inhibit”.

Regarding `O=C(/C=C/c1ccc(C(F)(F)F)cc1)c1ccc[nH]1` [Compound 3], the IC50 in experiment [1] was 3.81 ± 0.387 µM.

Turning to `COc1cc(OC)c(/C=C/C(=O)c2ccc(Br)cc2)c(OC)c1` [Compound 1], in experiment [1], the IC50 is 0.56 ± 0.076 µM.

On to `O=C(/C=C/c1ccc(F)cc1)c1ccc(N2CCOCC2)cc1` [Compound C3, (E)-3-(4-Fluorophenyl)-1-(4-morpholinophenyl)prop-2-en-1-one], for which the “% Antioxidant Activity” value in experiment [2] (10 µM) is 14.58%; in experiment [2] (25 µM) it was 38.25%; in experiment [2] (50 µM), 40.31%; in experiment [2] (75 µM) it was 50% and 53.10%; in experiment [2] (100 µM), 56.87%. The inhibition at 20 µM in experiment [3] (read-out: IC50 Values MAO-B) is under 50%; in experiment [3] (setting [7]) it was 7.11%; in experiment [4] (read-out: IC50 Values MAO-A, class symbol, IC50 not calculated) it was under 50%; in experiment [4] (setting [8]) it was 37.7%.

In the case of `Cc1ccccc1/C=C/C(=O)c1ccc(N2CCOCC2)cc1` [Compound C15, (E)-1-(4-Morpholinophenyl)-3-(o-tolyl)prop-2-en-1-one], the “% Antioxidant Activity” value came to 6.51% in experiment [2] (10 µM); 30.71% in experiment [2] (25 µM); 41.06% in experiment [2] (50 µM); 32.50% in experiment [2] (75 µM); 29.17% in experiment [2] (100 µM). The inhibition at 20 µM in experiment [3] (read-out: IC50 Values MAO-B) was under 50%; in experiment [3] (setting [7]), 25.7%; in experiment [4] (setting [8]), 6.17%.
